SMILES strings stand for the structures. Structures can show the parent of a compound that is named as a salt.

For one experiment, the target named is MC4R (Homo sapiens, UniProt P32245). Put plainly: Binding affinity (125I-NDP-α-MSH displacement, membranes of HEK-293 cells expressing MC4R). The arrangement: expressed in transfected cells; host or cells: HEK-293 cells, membrane preparation. As to conditions: 0.02 nM 125I-NDP-α-MSH, 37° C. for two hours, pH 7.0. The source says: Five subtypes of melanocortin receptor (MCR) in vivo are known, and it is known that MC4R, which is Subtype 4, is involved in energy metabolism and weight control. Since other MCR subtypes are involved in the regulation of various functions in vivo such as skin pigmentation, energy homeostasis, and exocrine functions, securing selectivity for MC4R of MC4R agonist compounds is very important in preventing possible side effects in the future. Therefore, the receptor binding abilities of MC4R agonists for each MCR subtype were measured.
Chain of MC4R (P32245 whole entry): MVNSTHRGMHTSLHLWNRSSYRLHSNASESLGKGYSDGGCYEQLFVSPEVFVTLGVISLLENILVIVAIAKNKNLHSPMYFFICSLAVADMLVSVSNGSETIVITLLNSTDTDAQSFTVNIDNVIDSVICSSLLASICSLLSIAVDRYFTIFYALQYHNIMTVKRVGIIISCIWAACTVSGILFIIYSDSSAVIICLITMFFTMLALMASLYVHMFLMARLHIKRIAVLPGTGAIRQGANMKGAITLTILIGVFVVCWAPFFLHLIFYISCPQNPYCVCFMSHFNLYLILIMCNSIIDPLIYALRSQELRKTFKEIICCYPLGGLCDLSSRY
After the CHO-K 1 cell line expressing human recombinant MC1R and the HEK-293 cell lines expressing MC3R, MC4R and MC5R were established, membranes were collected from each cell line. In a 96-well cell culture plate, 3 μg MC1R membrane and 0.04 nM ^125I-NDP-α-MSH per well were reacted at 37° C. for two hours. 3 μg MC3R and MC5R membrane and 0.035 nM ^125I-NDP-α-MSH were reacted at 37° C. for one hour, and […] MC4R membrane and 0.02 nM ^125I-NDP-α-MSH were reacted at 37° C. for two hours. At this time, 25 mM HEPES-KOH adsorption buffer (pH 7.0) containing MCR agonist diluted at each step concentration was added to each well and reacted. The reacted solution was transferred to a filter and washed with an adsorption buffer, and then radioactivity was measured. The value excluding the non-specific binding amount in the presence of 1 μM (MC1R) and 3 μM (MC3R, MC4R, MC5R) of NDP-α-MSH from each total binding amount was used as specific binding amounts of ^125I-NDP-α-MSH. The degree to which the ^125I-NDP-a-MSH specific binding was inhibited by the agonist diluted at each step concentration was measured. IC50 was expressed as the concentration of each agonist that inhibited specific binding of 50% of ^125I-NDP-α-MSH.
Tables 4-1 and 4-2 show the results of measuring the binding of melanocortin receptors of the compounds obtained by the above experiment in Ki (nM) units.

Experiment [1] deals with T1, MC4R (melanocortin-4 receptor) (Homo sapiens, UniProt P32245).
T1 construct: expressed in transfected cells
T1 sequence (P32245 whole entry, species assumed): as the sequence (P32245 whole entry) above
Put plainly: Luciferase assay (CRE-LUC, HEK MC4R-Luc cells). The following applies: 5 h incubation, concentration inducing 50% of each agonist's own maximum luminescence. The class given is cell-based. The method, then:
In order to measure the agonist ability against MC4R (melanocortin-4 receptor), a cell line that permanently expresses the luciferase gene (CRE-LUC) under the control of MC4R and CRE (cAMP response element) was established. After a mammalian cell expression vector (pCDNA3 (Neo)) (Invitrogen) containing the MC4R gene was prepared, human embryonic kidney (HEK) cell lines were transformed by using Lipofectamine 2000 (Invitrogen) together with a vector (pCRE-Luc)(Stratagen) expressing a luciferase gene (CRE-LUC) under the control of a cAMP response element (CRE). Transformed cell lines (HEK MC4R-Luc) were incubated in a 37° C. incubator in the presence of 5% CO2 for 24 hours by using Dulbecco's Modified Eagles Medium (DMEM) containing 10% Heat-Inactivated Fetal Bovine Serum (GIBCO/BRL). The cell lines were incubated for four days in the presence of Dulbecco's Modified Eagles Medium (DMEM) containing 10 ml of selection medium (10% Heat-Inactivated Fetal Bovine Serum (GIBCO/BRL), 100 unit/ml of penicillin (GIBCO/BRL), 100 unit/ml of streptomycin (GIBCO/BRL), 800 μg/ml of Geneticin (G418) (GIBCO/BRL). The process of removing cells killed by the selection medium by replacing the medium with 10 ml of a new selection medium was repeated three times, once every 4 days. Individual colonies formed by the finally selected and propagated clones were transferred under a microscope to a 24-well cell culture plate containing 1 ml of selection medium per well and incubated for 4 days. Forskolin (SIGMA) was treated to a final concentration of 10 μM, and then incubated for five hours in a 37° C. incubator in the presence of 5% CO2. Each well was treated with 50 μl of a Bright-Glo luciferase reagent (Promega) and left at room temperature for 15 minutes, and then the luminescence of each well was measured by using a luminometer (Victor).
HEK MC4R-Luc cells were added to each well of a 96-well luminometer cell culture plate (Costar) to a size of 2.5×10^4 cells in 100 μl of a culture medium and then incubated in a 37° C. incubator in the presence of 6% CO2 for 18 hours. […] Each well was treated with 50 μl of a Bright-Glo luciferase reagent (Promega) and left at room temperature for five minutes, and then the luminescence of each well was measured by using a luminometer (Victor). […] EC0.5 MSH is expressed as a concentration that induces 50% of the maximum amount of luminescence that can be induced by NDP-α-MSH, and EC50 is expressed as a concentration that induces 50% of the maximum amount of luminescence that can be induced by each agonist. The measurements were measured using statistical software (Prizm).

Consider `CC(=O)N(C1CCC(C)(C)CC1)[C@H]1C[C@@H](C(=O)N2CCOCC2)N(C(=O)[C@@H]2CN(C(C)(C)C)C[C@H]2c2ccc(F)cc2F)C1` [Comparative Example 1 (A95), N-((3S,5S)-1-((3S,4R)-1-(tert-butyl)-4-(2,4-difluorophenyl)pyrrolidine-3-carbonyl)-5-(morpholine-4-carbonyl)pyrrolidin-3-yl)-N-(4,4-dimethylcyclohexyl)acetamide hydrochloride, reference compound], for which the Ki (usually a dissociation constant, usually derived from enzyme kinetics or from competition with a known ligand) on MC4R (Table 4-1) was determined as 1450 nM; on MC4R (Table 4-2) it was 1780 nM. In experiment [1], the concentration giving a half-maximal response (EC50) (commonly the concentration that produces a half-maximal response) was found to be 14.7 nM.
With `CC(=O)N(C1CCC(C)(C)CC1)[C@H]1C[C@@H](C(=O)N2CCOCC2)N(C(=O)[C@@H]2CN(C(C)(C)C)C[C@H]2c2ccc(Cl)cc2)C1` [Comparative Example 2 (A96), N-((3S,5S)-1-((3S,4R)-1-(tert-butyl)-4-(4-chlorophenyl)pyrrolidine-3-carbonyl)-5-(morpholine-4-carbonyl)pyrrolidin-3-yl)-N-(4,4-dimethylcyclohexyl)acetamide hydrochloride, reference compound], the Ki at MC4R (Table 4-1) came out at 410 nM; on MC4R (Table 4-2), 530 nM. In addition, the response in experiment [1] was half-maximal at 5.61 nM (EC50).
With `CC(C)C(=O)N(C1CCC(C)(C)CC1)[C@H]1C[C@@H](C(=O)N2CCOCC2)N(C(=O)[C@@H]2CN(C(C)(C)C)C[C@H]2c2ccc(Cl)cc2)C1` [Example 5, N-((3S,5S)-1-((3S,4R)-1-(tert-butyl)-4-(4-chlorophenyl)pyrrolidine-3-carbonyl)-5-(morpholine-4-carbonyl)pyrrolidin-3-yl)-N-(4,4-dimethylcyclohexyl)isobutyramide hydrochloride], the EC50 in experiment [1] is 3.82 nM.

For the origin of these results see US20240190856A1, “MELANOCORTIN-4 RECEPTOR AGONIST” (LG CHEM, LTD., priority 2021, published 2024).
